# From patent US20240415858A1, “PROMOTING MYELINATION BY N-ACETYLGLUCOSAMINE AND MODULATION OF N-GLYCAN BRANCHING” (THE REGENTS OF THE UNIVERSITY OF CALIFORNIA, priority 2021, published 2024)
# Experiments:
# MS patients [1] = assay: Open-label Phase 1 trial of oral GIcNAc in MS: safety, tolerability, relapse rate; type: in vivo, human
# Protocol: Based on its immunomodulatory effects, a FDA approved (IND 122235) dose escalation was carried out, open-label NIH funded Phase 1 mechanistic clinical trial of oral GIcNAc in MS patients (RRMS and PMS) on glatiramer acetate and not in acute relapse, with the primary endpoint an increase in N-glycan branching in T cells. This endpoint was used as a surrogate marker for GIcNAc's biological activity. Three doses were evaluated: 1 g TID (3 g total, n=13), 2 g TID (6 g total, n=18) and 4 g TID (12 g total, n=16). Subjects had baseline blood drawn weekly four times, then started on oral GIcNAc with 4 weekly blood draws (FIG. 8A).
# The annualized relapse rate on GIcNAc in the combined group was 0.277 (from a single relapse in a subject on the 6 g dose).
# MS patients [2] = assay: Phase 1 trial: four-week confirmed improvement in disability (EDSS); type: in vivo, human; conditions: unblinded
# Protocol: Four-week confirmed improvement in disability (EDSS) was also evaluated in the 6 g and 12 g cohorts. […] Baseline EDSS scores were compared with scores after 4 weeks of oral GIcNAc that were confirmed 4 weeks later at the last study visit.
# [3] = tested on: mouse neural stem cells (NSC) derived from the medial ganglionic eminence of E12.5 mouse embryos; assay: Oligodendrogenesis from mouse neural stem cells in vitro (flow cytometry, immunofluorescence); type: cell-based
# Text: Mice were bred and utilized as approved by the University of California, Irvine Institutional Animal Care and Use Committee. Dorsal forebrain cortical tissue was dissected from the medial ganglionic eminence (MGE) at embryonic day 12.5 (E12) of CD1 mice (Charles River) or Mgat5−/− C57BL/6 mice and their wildtype littermates and placed in dissection buffer comprising PBS, 0.6% glucose, and 50 U/mL Pen/Strep. Tissue from multiple embryos within the same litter were pooled, and a subsequent culture from a single litter was considered a biological repeat. The tissue was dissociated using 0.05% Trypsin-EDTA at 37° C. for 10 min, followed by treatment with soybean trypsin inhibitor (Life Technologies). Dissociated cells were re-suspended in proliferation medium comprising DMEM, 1× B27, 1× N2, 1 mM sodium pyruvate, 2 mM L-glutamine, 1 mM N-acetylcysteine, 20 ng/mL EGF (PeproTech), 10 ng/mL bFGF (PeproTech), and 2 μg/mL heparin and seeded at 150,000 cells/mL (non-tissue culture treated plastic plates) and grown as non-adherent spheres. Cell cultures were passaged approximately every 3 days using enzyme-free NeuroCult Chemical Dissociation Kit (Mouse) (StemCell Technologies). Cultures were passaged at least once prior to experimental use. For experiments, passaged cells were cultured in proliferation media (bFGF and EGF) or differentiation media (bFGF (10 ng/ml) and PDGF-AA (10 ng/ml); Life technologies) for 48 hours with or without the presence of GIcNAc (Ultimate Glucosamine, Wellesley Therapeutics) or kifunensine (GlycoSyn). Neurospheres were dispersed using the enzyme-free NeuroCult kit before being analyzed by flow cytometry using one or more of the following antibodies: anti-CD140a/PDGF-RA PE conjugate (1:200, A15785, Molecular Probes), anti-04 Alexa Fluor 488 conjugated (1:200, FAB1326G, RnD systems), Anti-GaIC Alexa Fluor 647 1:200, MAB342-AF647, Millipore), Anti-Olig2 (1:200, AB9610, Millipore) with anti-rabbit Alexa Fluor 488 (1:200, thermofisher).
# For neural stem cell (NSC) immunofluorescence, whole neurospheres were seeded onto laminin-coated coverslips (Neuvitro) in proliferation medium. After 24 hours, proliferation media was removed and replaced with differentiation medium (same components as proliferation medium but excluding EGF, bFGF, and heparin) to induce differentiation. For analysis of mouse brains, brains were incubated in 30% sucrose for at least 72 hours, embedded in OCT (Tissue-tek), frozen for at least 48 hours at −80° C., and then cut at 40 microns on a cryostat. Multiple sections from −1 bregma to −2.5 bregma were then stained with antibodies for MBP (1:100; MAB386, Millipore), Olig2 (1:200; AB9610, Millipore), CC1 (1:100; OP90, Millipore), degraded MBP (1:200, AB5864, Millipore) and Amyloid Precursor Protein (APP, 1:200; clone 22C11). After overnight incubation with primary antibody, tissues were washed and incubated with secondary antibodies: goat anti-rat Alexa-fluor 488 (1:200, Thermofisher), goat anti-rabbit TxRd (1:200, Thermofisher). APP is a marker for neuro-axonal damage while co-staining for CC1 and Olig2 are markers of mature oligodendrocytes. In order to examine the amount of myelin, slices were incubated in Fluoromyelin (1:300; F34651, Thermofisher) for 45 minutes. Images were acquired on a Keyence fluorescence microscope. Mean fluorescence intensity of the medial corpus callosum was measured using ImageJ.
# Oligodendrogenesis were examined in vitro using mouse neural stem cells (NSC) derived from the medial ganglionic eminence of E12.5 mouse embryos, where OPC's first appear. […] Consistent with increased PDGFRα surface expression, GIcNAc also promoted pre-oligodendrocyte differentiation as evidenced by augmented expression of Oligodendrocyte Transcription Factor (OLIG2) and increased numbers of 04 and GaIC positive cells (FIGS. 1A, 1B and 1C, FIGS. 5B and 5C). […]
# [4] = NSCs, 48 hrs, growth media lacking exogenous differentiation cytokines
structure (smiles),measurement,setting,value
"CC(=O)N[C@H]1C(O)O[C@H](CO)[C@@H](O)[C@@H]1O (some centres unmarked) [GIcNAc, N-acetylglucosamine]",annualized relapse rate on GIcNAc,"MS patients [1]; combined group, a single relapse in a subject on the 6 g dose",0.277
same,"subjects with mild GI symptoms (gas, bloating, loose stool)","MS patients [1]; oral, 12 g per day (4 g TID)",~50%
same,discontinuation due to GI symptoms,"MS patients [1]; oral, all doses",No subject discontinued
same,safety,"MS patients [1]; oral, all doses (3 g, 6 g, 12 g per day), 4 weeks",safe
same,"subjects with mild GI symptoms (gas, bloating, loose stool)","MS patients [1]; oral, the other doses (3 g, 6 g per day)",not
same,subjects with 4-week confirmed improvement in clinical disability (EDSS),"MS patients [2]; 6 g/day, 4 of 18 subjects",22%
same,subjects with 4-week confirmed improvement in clinical disability (EDSS),"MS patients [2]; 12 g/day, 5 of 16 subjects",31%
same,NSC differentiation to O4+ pre-oligodendrocytes,[3]; GIcNAc combined with PDGF-AA (differentiation media),enhanced
same,"initiating oligodendrogenesis, compared with PDGF-AA differentiation media",[3]; GIcNAc in growth media vs differentiation media with exogenous PDGF-AA,more potent than differentiation media containing exogenous PDGF-AA
same,"pre-oligodendrocyte differentiation (OLIG2 expression, numbers of O4 and GalC positive cells)","[3]; NSCs, 48 hrs, growth media",promoted
same,N-glycan branching (L-PHA flow cytometry),[3]; [4],significantly increased
same,PDGFRα surface expression,[3]; [4],significantly increased
same,"development of pre-oligodendrocytes (PDGFRα O4+), double staining","[3]; NSCs, growth media",promoted development
same,number of OPC's (PDGFRα+O4−),"[3]; NSCs, growth media",no change
